Experimental data reported in publication PMC12400448 (Chemical Science, 2025).

Biological target: alkaline phosphatase (ALP)
Assay: fluorescence enzyme inhibition assay with compd. […] as substrate
Format: biochemical

- IC50: 10.2 µM
Structure (SMILES): [O]=[V]([OH])([OH])[OH] [sodium orthovanadate]
